# Measurements: US8470333B2, “Chimeric peptides comprising HER-2 B-cell epitopes and T-helper epitopes” (The Ohio State University Research Foundation, priority 2005, dated 2013)
# Positions of bridges follow the written chain, without caps; N, C: chain ends. No end group written: not given here.
# How the values were obtained:
# [1] = test system: NT2.5 tumor cell line; assay: NT2.5 tumor challenge in immunized FVB/n mice; type: in vivo, mouse; settings: for doubling time: NT2.5 tumor in vaccinated FVB/N mice; for mean tumor volumes at day 30: FVB/n mice, 5×10^6 NT2.5 cells s.c. two weeks after final immunization, data not shown
# Description: (§1) The human EGFR disulfide pairings have been defined. Based on the high homology between EGFR and HER-2, the 628-647 epitope to 626-649 to incorporate two disulfide bonds between Cys-626 and Cys-634, and Cys-630 and Cys-642. Differential side chain protection and a specialized deprotection and oxidation successfully generated the cyclized product with a desired secondary structural characteristics as determined by CD measurements. […] Cyclized antibodies elicited twice the level of specific lysis compared to non-cyclized antibodies in an ADCC assay (11 and 5.6% respectively). To investigate the in vivo effect of these peptide vaccines, inbred FVB/N mice were immunized with the constructs. Both constructs were immunogenic in these mice with the cyclized construct generating higher titers. These mice were then challenged with the NT2.5 tumor cell line which has an FVB/N background.
# To better understand the potential clinical benefit associated with introducing conformational constraints into B-cell epitope vaccines, both FVB/n and neu-N transgenic mice were challenged with the tumor cell line NT2.5 derived from a spontaneous mammary tumor isolated from a neu-N transgenic mouse. As a consequence of neu over-expression these mice develop spontaneous mammary adenocarcinomas in a manner similar to that observed in human breast cancer patients, and are therefore a suitable model for human breast cancer studies. […] (lower abdomen) two weeks after final immunization. Tumor measurements were taken twice weekly until day 55. Tumor volumes were calculated by the formula (long measurement×short measurement^2)/2. Note that after day 30 the tumors in FVB/n mice begin to regress, indicative of rejection of the tumor. With subsequent tumor studies using FVB/n mice, tumors were measured to day 30.
# [2] = test system: FVB/n mice; assay: Immunogenicity in FVB/n mice, antibody titers by direct ELISA; type: in vivo, mouse
# Experimental: Groups of four to ten FVB/n mice were immunized with linear (NC) or disulfide-bonded (SS) peptide constructs (A) MVF563-598, (B) MVF585-598, (C) MVF597-626, or the linear peptide (D) MVF613-626. Each mouse is represented as an individual bar. Note that the scale in A is different then B-D;
# Direct ELISAs were performed on sera from mice immunized with the cyclized (CYC) and linear (NC) constructs to determine differences in immunogenicity. Antibody titers against the corresponding immunogen were defined as the reciprocal of the highest dilution with absorbance ≧0.2. Each bar represents an individual mouse. Designation on the x-axis represents time at which sera was sampled, e.g. 1y+3 corresponds to serum collected three weeks after the first immunization. Neu-N mice have an FVB/n background and express normal rat neu proto-oncogene under control of a mammary-specific promoter. These mice show tolerance to neu relative to non-transgenic mice (Cancer Research 60, 3569).
# Direct ELISA. U-bottom polyvinyl chloride plastic assay plates were coated with 100 μl of antigen at 2 μg/ml in PBS overnight at 4° C. Nonspecific binding sites were blocked for 1 hour with 200 μl PBS-1% BSA and plates were washed with PBT (phosphate-buffered saline containing 0.05% Tween 20 and 1% horse serum). Rabbit antiserum 1/500 or mouse antiserum 1/50 in PBT was added to antigen coated plates, serially diluted 1:2 in PBT, and incubated 2 hr at room temperature. After washing the plates, 50 μl of 1/500 goat anti-rabbit or goat anti-mouse IgG conjugated to horseradish peroxidase (Pierce Chemical Co.) was added to each well. Excess antibody conjugate was removed, and bound antibody was detected using 50 μl of 0.15% H2O2 in 24 mM citric acid, 5 mM sodium phosphate buffer, pH 5.2, with 0.5 mg/ml […] as the chromophore. Color development was allowed to proceed for 10 min and the reaction was stopped with 25 μl of 1% sodium dodecylsulfate. Absorbance was determined at 410 nm using a Dynatech MR700ELISA reader. Results are expressed as the mean absorbance of duplicate wells after subtraction of background.
# The immunogenicity of the 4 constructs listed in Table 1 was determined using both the disulfide-bonded and linear constructs by immunizing groups of FVB/n mice (n=4-9) 6-8 weeks old. […] Three mice that received the cyclized form of 597-626 had titers above 120,000, while no mouse that received the linear form had titers above 120,000.
# [3] = test system: trastuzumab; assay: ELISA binding of trastuzumab to peptides; settings: FIG. 4
# Experimental: The peptide sequences are given on the x-axis. MVF316-339 is an Her-2 irrelevant control peptide;
# Microtiter wells were coated overnight with 2 μg/ml of various peptides and then blocked with 1% BSA for one hour. […] Values shown are the mean of duplicate samples. SEM are indicated by error bars.
# [4] = target: T1, HER-2 protein (Homo sapiens, UniProt P04626); assay: Flow cytometry binding of anti-peptide antibodies to HER-2 protein (Example 1); type: cell-based; settings: antibodies against the epitope; flow cytometry binding to HER-2 protein
# T1 construct: endogenous in cells; host or cells: SKBR3 or MCF-7 according to the general method
# Experimental: Indirect Binding Assay. SKBR3 cells or MCF-7 cells were plated at 5,000 cells/well in V-bottom plates (Linbro, McLean Va.). The cells were incubated with various concentrations of antibodies. After being washed with Hank's Balanced Salts Solution (HBSS) the cells were incubated for one hour with fluorescein isothiocyanate (FITC)-conjugated goat anti-rabbit or goat anti-mouse antibody and fixed with formalin. A mouse monoclonal Ab (Oncogene Science, Cambridge, Mass.) was used as the positive control and an anti-CD3 Ab as the negative control. The cells were analyzed by a Coulter ELITE flow cytometer (Coulter, Hialeah, Fla.), which has an argon laser for excitation at 488 nm, and a 525 run band pass filter for FITC fluorescence 5.0×10^3 cells were counted for each sample and final processing was performed. Debris, cell clusters and dead cells were gated out by light scatted assessment before single parameter histograms were drawn.
# The human EGFR disulfide pairings have been defined. Based on the high homology between EGFR and HER-2, the 628-647 epitope to 626-649 to incorporate two disulfide bonds between Cys-626 and Cys-634, and Cys-630 and Cys-642. Differential side chain protection and a specialized deprotection and oxidation successfully generated the cyclized product with a desired secondary structural characteristics as determined by CD measurements. […]
# [5] = test system: cells overexpressing HER-2; assay: Anchorage-independent growth assay; type: cell-based; settings: antibodies against the epitope
# [6] = test system: effector human PBMCs; assay: IFN-γ release in the presence of effector human PBMCs; type: cell-based; settings: antibodies against the construct
# [7] = ADCC assay (Example 1); type: cell-based; settings: antibodies against the epitope
# Description: as §1
# [8] = test system: BT-474 human breast cancer cells (HER-2high); assay: Flow cytometry of peptide antibodies with BT474 cells; type: cell-based
# Experimental: Flow cytometry was used to assess whether antibodies from FVB/n mice induced by various constructs recognize native HER-2. BT-474 human breast cancer cells (HER-2high) were treated with 10 μg/mL of normal mouse Ig (negative control), mouse monoclonal Ab-2 (positive control), or peptide antibodies raised in FVB/n mice.
# (§2) The reactivity of purified antibodies from immunized mouse sera was tested with (A) BT474 and (B) SKBR-3 breast cancer cell lines using flow cytometric analysis. Ab binding was detected with goat-anti mouse FITC-conjugated abs. The x-axis represents fluorescent intensity, and the y-axis represents relative cell number. Each histogram contains an overlay of mouse pre IgG, peptide antibodies, and AB2, a mouse mAb that binds HER-2.
# (§3) Indirect Binding Assay. SKBR3 cells or MCF-7 cells were plated at 5,000 cells/well in V-bottom plates (Linbro, McLean Va.). The cells were incubated with various concentrations of antibodies. […] The cells were analyzed by a Coulter ELITE flow cytometer (Coulter, Hialeah, Fla.), which has an argon laser for excitation at 488 nm, and a 525 run band pass filter for FITC fluorescence 5.0×10^3 cells were counted for each sample and final processing was performed. […]
# [9] = test system: SKBR-3 breast cancer cell line; assay: Flow cytometry of peptide antibodies with SKBR-3 cells; type: cell-based, human; settings: purified antibodies from immunized mouse sera, FIG. 13
# Experimental: as §2
# Cell Culture. Stock cultures were maintained at 37° C. in a 5% CO2 incubator. All cell culture media, FCS, and supplements were purchased from GEBCO (Grand Island, N.Y.). The human breast adenocarcinoma cell lines SKBR-3 and MCF-7 were obtained from the American Type Culture Collection and was subcultured in McCoy's 5A or DMEM supplemented with 10% FCS and L-glutainine. Cav-1 was maintained in RPMI 1640 with 10% FCS and L-glutamine. […] SKBR3 is a breast tumor cell line which overexpresses the HER-2 protein while MCF-7 expresses the normal concentration of protein.
# as §3, with “Va.).” for “Va.). The cells were incubated with various concentrations of antibodies.”
# [10] = by day 33, compared to both unimmunized and MVF immunized mice
substance,measurement,setting,value
"KLLSLIKGVIVHRLEGVE [MVF control peptide, reference compound]",doubling time,[1],4.48 days
KLLSLIKGVIVHRLEGVE-GPSL-CHPECQPQNGSVTCFGPEADQCVACAHYKDPPFCVA (KLLSLIKGVIVHRLEGVEGPSLCHPECQPQNGSVTCFGPEADQCVACAHYKDPPFCVA; disulfide (positions not given here)) [MVF 563 SS],immunogenicity,"[2]; FVB/n mice, Example 3, FIG. 3",highly immunogenic
same,titers,"[2]; two mice of the group, three weeks after the third immunization","above 250,000"
same,mean tumor volumes at day 30,[1]; listed as 563-598 SS,173.7292 mm^3
same,binding to trastuzumab,[3],Maximum binding
KLLSLIKGVIVHRLEGVE-GPSL-CHPECQPQNGSVTCFGPEADQCVACAHYKDPPFCVA [563-598 NC],mean tumor volumes at day 30,[1],166.517 mm^3
KLLSLIKGVIVHRLEGVE-GPSL-CPINCTHSCVDLDDKGCPAEQRAS [626-649 cyclized],immunogenicity,"[2]; inbred FVB/N mice, Example 1",higher titers
same,mean log fluorescence,[4],2.29
same,inhibition (reduction of growth),[5],31%
same,IFN-γ release,[6],able to elicit IFN-γ release
same,higher levels of IFN-γ compared to the linear antibodies,[6],25%
same,specific lysis,[7],11%
same,doubling time,[1],6.63 days
same,tumor volume,"[1]; immunized FVB/N mice challenged with NT2.5, compared to linear and control MVF immunized mice",reduction in tumor volume
KLLSLIKGVIVHRLEGVE-GPSL-CPINCTHSCVDLDDKGCPAEQRAS [626-649 linear],immunogenicity,"[2]; inbred FVB/N mice, Example 1",immunogenic
same,mean log fluorescence,[4],1.65
same,inhibition (reduction of growth),[5],58%
same,IFN-γ release,[6],able to elicit IFN-γ release
same,specific lysis,[7],5.6%
same,doubling time,[1],4.31 days
KLLSLIKGVIVHRLEGVE-GPSL-IWKFPDEEGACQPL (KLLSLIKGVIVHRLEGVEGPSLIWKFPDEEGACQPL) [MVF 613],immunogenicity,"[2]; FVB/n mice, Example 3, FIG. 3",highly immunogenic
same,tumor volume,[1]; [10],reduction in tumor volume
same,shift in flow cytometry,"[8]; FVB/n purified antibodies, FIG. 5",shifted relative to normal mouse antibodies
same,recognition of HER-2,"[8]; purified antibodies from immunized mouse sera, FIG. 13",recognize HER-2
same,recognition of HER-2,[9],recognize HER-2
KLLSLIKGVIVHRLEGVE-GPSL-LHCPALVTYNTDTFESMPNPEGRYTFGASCV (KLLSLIKGVIVHRLEGVEGPSLLHCPALVTYNTDTFESMPNPEGRYTFGASCV; also: cyclized) [MVF 266 CYC],tumor development and growth,"[1]; wild-type FVB/n mice, 3×106 NT2.5 cells s.c., 24 days, compared to MVF immunized mice only",delayed tumor development (A) and growth (B)
KLLSLIKGVIVHRLEGVE-GPSL-VACAHYKDPPFCVA (KLLSLIKGVIVHRLEGVEGPSLVACAHYKDPPFCVA; disulfide 25-34 (inferred)) [MVF 585 SS],tumor volume,[1]; [10],reduction in tumor volume
KLLSLIKGVIVHRLEGVE-GPSL-VARCPSGVKPDLSYMPIWKFPDEEGACQPL [597-626 linear],titers,[2]; no mouse of the group above this value,"≤ 120,000"
